{"source": "patent US7259146B2", "about": "“Neuroprotective peptides” (Ortho-McNeil Pharmaceutical, Inc., priority 2000, dated 2007)", "key": {"[1]": {"system": "rat cerebral cortical cultures", "assay": "Neurite outgrowth assay (MAP2-FITC immunofluorescence), cortical cultures", "type": "cell-based", "conditions": "for dose-response profile: 10 fM-10 nM", "text": "(§1) Dissociated hippocampal and cortical cell cultures were established from embryonic day 18 rat fetuses as previously described (Mattson et al., 1994). Briefly, fetuses were removed via cesarean section from pregnant moms (Sprague-Dawley) anesthetized with halothane according to the AVMA Panel on Euthanasia. Pups were decapitated and the brains were removed and placed in HEPES-buffered Hank's Balanced Salt solution (HBSS; Gibco). The hippocampi and cortices were dissected out and pooled according to tissue-type. Tissue was trypsinized for 15 min (1 mg/ml trypsin-HBSS; Worthington), rinsed with fresh HBSS, incubated in trypsin inhibitor (1 mg/ml; Sigma) for 5 min, rinsed again with fresh HBSS and then triturated in 1 ml fresh HBSS with a fire-polished glass pipette. Dissociated cells were seeded at 30,000 cells/well onto poly-D-lysine coated 96-well plates (Collaborative BioScience). Each well contained 100 μl of Eagle's Minimal Essential Media (MEM; Gibco) supplemented with 26 mM NaHCO3 (Sigma), 56 mM glucose (Sigma), 15 mM KCl (Sigma), 1 mM sodium pyruvate (Sigma), 1.1 mM L-glutamine (Sigma), 10% (v/v) heat-inactivated fetal bovine serum (Hyclone), and 0.001% gentamicin sulfate (Sigma) (pH 7.4). Cells were allowed to attach for 24 h in a humidified 37° C. 5% CO2 incubator before experimental treatment. The culture media was aspirated and exchanged with fresh media every three days.\n(§2) Twenty-four hours after plating, cultures were treated with vehicle (PBS+0.1% BSA), 100 ng of various growth factors (brain derived neurotrophic factor (BDNF; Promega), glial-derived neurotrophic factor (GDNF; Promega), nerve growth factor (NGF; Boehringer Mannheim), basic fibroblast growth factor (bFGF; Boehringer Mannheim), insulin-like growth factor-1 (IGF-1; Boehringer Mannheim), neurotrophin-3 (NT3; Calbiochem), neurotrophin-4 (NT4; Calbiochem), ciliary neurotrophic factor (CNTF; Calbiochem), epidermal growth factor (EGF; Calbiochem), vascular endothelial growth factor (VEGF; Calbiochem)), or rhEPO (prepared same as above; 10 fM-10 nM)). Each treatment condition was run in quadruplicate or octuplicate. On the third day in culture, the media was aspirated off and replaced with fresh media and test compound. At one week in culture, the cells were fixed with 10% phosphate-buffered formalin for 15 min, then rinsed with DPBS (Sigma) and placed in blocking serum for 30 min (horse serum; 1:50 dilution in DPBS; Vector Labs). Cultures were rinsed again with DPBS and then incubated in primary antibody for 2 hr (microtubule-associated protein-2 (MAP-2) is a selective marker for dendritic processes; anti-mouse monoclonal (Chemicon); 1:1000 dilution of MAP-2 in antibody diluent (Zymed)). Negative control wells were incubated in antibody diluent alone. Background signal was determined by blank wells (cell-free) incubated with or without antibody. Cultures were rinsed again with DPBS and then placed in fluorescein for 1 hr (FITC; anti-mouse IgG; rat adsorbed; 1:50 dilution in DPBS; Vector Labs). Cultures were rinsed a final time with DPBS and then the plates were read on a Cytofluor 4000 fluorescence plate reader. Neurite outgrowth was expressed as percent change from control (vehicle; mean fluorescence±SD).\n(§3) Dissociated hippocampal and cortical cell cultures were established from embryonic day 18 rat fetuses as previously described (Mattson et al., 1994). Briefly, fetuses were removed via cesarean section from pregnant moms (Sprague-Dawley) anesthetized with halothane according to the AVMA Panel on Euthanasia. Pups were decapitated and the brains were removed and placed in HEPES-buffered Hank's Balanced Salt solution (HBSS; Gibco). The hippocampi and cortices were dissected out and pooled according to tissue-type. […]"}, "rat hippocampal cultures": {"system": "rat hippocampal cultures", "assay": "Neurite outgrowth assay (MAP2-FITC immunofluorescence), hippocampal cultures", "type": "cell-based", "conditions": "for overall neurite outgrowth response, hippocampal versus cortical cultures: comparison of hippocampal and cortical cultures; for dose-response profile: 10 fM-10 nM", "text": "as §1, §2, §3"}}}
{"sequence": "GGTASCHFGPLTWVCKPQGG [EMP-6]", "values": [{"measurement": "neurite outgrowth (in words)", "setting": "[1]", "result": "promotes neurite outgrowth"}, {"measurement": "dose-response profile", "setting": "[1]", "result": "typical bell-shaped dose-response profiles"}, {"measurement": "overall neurite outgrowth response, hippocampal versus cortical cultures", "setting": "rat hippocampal cultures", "result": "robust neurite outgrowth activity in both hippocampal and cortical cultures"}, {"measurement": "neurite outgrowth (in words)", "setting": "rat hippocampal cultures; hippocampal cultures", "result": "promotes neurite outgrowth"}, {"measurement": "dose-response profile", "setting": "rat hippocampal cultures; hippocampal cultures", "result": "typical bell-shaped dose-response profiles"}]}
{"sequence": "GGTYSCFGPLTWVCKPQGG [EMP-27]", "values": [{"measurement": "neurite outgrowth (in words)", "setting": "[1]", "result": "promotes neurite outgrowth"}, {"measurement": "dose-response profile", "setting": "[1]", "result": "flat response overall"}, {"measurement": "overall neurite outgrowth response, hippocampal versus cortical cultures", "setting": "rat hippocampal cultures", "result": "less impressive overall"}, {"measurement": "neurite outgrowth (in words)", "setting": "rat hippocampal cultures; hippocampal cultures", "result": "promotes neurite outgrowth"}, {"measurement": "dose-response profile", "setting": "rat hippocampal cultures; hippocampal cultures", "result": "flat response profile"}]}
{"sequence": "GGTYSCHFAPLTWVCKPQGG [EMP-9]", "values": [{"measurement": "neurite outgrowth (in words)", "setting": "[1]", "result": "promotes neurite outgrowth"}, {"measurement": "dose-response profile", "setting": "[1]", "result": "flat response overall"}, {"measurement": "overall neurite outgrowth response, hippocampal versus cortical cultures", "setting": "rat hippocampal cultures", "result": "less impressive overall"}, {"measurement": "neurite outgrowth (in words)", "setting": "rat hippocampal cultures; hippocampal cultures", "result": "promotes neurite outgrowth"}, {"measurement": "dose-response profile", "setting": "rat hippocampal cultures; hippocampal cultures", "result": "flat response profile"}]}
{"sequence": "YCHFGPLTWVC [EMP-23]", "values": [{"measurement": "neurite outgrowth (in words)", "setting": "[1]", "result": "promotes neurite outgrowth"}, {"measurement": "dose-response profile", "setting": "[1]", "result": "typical bell-shaped dose-response profiles"}, {"measurement": "overall neurite outgrowth response, hippocampal versus cortical cultures", "setting": "rat hippocampal cultures", "result": "effects were greater in cortical cultures than hippocampal cells"}, {"measurement": "neurite outgrowth (in words)", "setting": "rat hippocampal cultures; hippocampal cultures", "result": "promotes neurite outgrowth"}, {"measurement": "dose-response profile", "setting": "rat hippocampal cultures; hippocampal cultures", "result": "modest response"}, {"measurement": "neurite outgrowth at peak activity, increase over vehicle", "setting": "rat hippocampal cultures; hippocampal cultures, EMP 10 fM-10 nM, one week in culture", "result": "43–46%"}]}
{"sequence": "GGTYSCHFGPLTWVCKPQGG [EMP-1]", "values": [{"measurement": "neurite outgrowth (in words)", "setting": "[1]", "result": "promotes neurite outgrowth"}, {"measurement": "dose-response profile", "setting": "[1]", "result": "flat response overall"}, {"measurement": "overall neurite outgrowth response, hippocampal versus cortical cultures", "setting": "rat hippocampal cultures", "result": "selective effects in hippocampal cultures over cortical cultures"}, {"measurement": "neurite outgrowth (in words)", "setting": "rat hippocampal cultures; hippocampal cultures", "result": "promotes neurite outgrowth"}, {"measurement": "dose-response profile", "setting": "rat hippocampal cultures; hippocampal cultures", "result": "typical bell-shaped dose-response profiles"}]}
